Measurements from ChEMBL document CHEMBL6153123, “Discovery of Potent and Brain-Penetrant Bicyclic NLRP3 Inhibitors with Peripheral and Central In Vivo Activity” (J Med Chem, 2025).

What was measured:
in vivo = settings: male, CD1, mouse, brain and plasma, po
in vitro = settings: dog, MDCK-MDR1
physchem = settings: buffer, pH 7.4

Compound	Kp uu (in vivo)	Papp A→B (in vitro)	chromatographic logD (physchem)
Cc1cc(C(F)(F)F)cc(O)c1-c1nnc(N[C@@H]2CCCN(C)C2)n2nccc12	0.056	26 ×10⁻⁶ cm/s	1.73
CN1C[C@H](Nc2nnc(-c3ccc(C(F)(F)F)cc3O)c3ccnn23)CC(F)(F)C1	–	13 ×10⁻⁶ cm/s	3.85
